Test results as given in article PMC11079029, “Intramolecular autoinhibition regulates the selectivity of PRPF40A tandem WW domains for proline-rich motifs” (Nature Communications, 2024).
Like-named read-outs stand apart in the source and are kept apart here.

Tests used:
[1] = test system: GFP-tagged PRPF40A-Nter-MUT; assay: SILAC GFP-immunoprecipitation with quantitative mass spectrometry, mutant construct; assay type: binding, human (Hela cells); conditions: quantitative MS, Hela cells, protein by gene name
Method: The PRPF40A N-terminal region (isoform 2, residues 1-221) was PCR-amplified from RPE1 cDNA (ATCC, Cat# CRL-4000) cDNA. The sequence was amplified in two fragments and both fragments were combined by overhang. All PCRs were carried out using Q5 Polymerase (NEB) according to manufacturer’s protocol. The resulting PRPF40A N-terminal region was cloned into a GFP-expressing pcDNA5 vector (see pcDNA5 GFP vector in ref. [28]) using Q5 Site-Directed Mutagenesis Kit (NEB). Nter-MUT, containing the PPVP/PALPP motifs changed to AAAA/AAAAA, was obtained by mutating the N-ter-WW12-containing plasmid with Q5 site-directed mutagenesis. Plasmids were transformed into DH5alpha chemically competent cells. After culturing, DNA isolation was performed with either ZymoPURE Plasmid Miniprep Kit (Zymo Research) or QIAGEN Plasmid Plus Midi Kit (Qiagen). The sequence was confirmed by Sanger Sequencing (GATC Eurofins). All used oligonucleotides are shown in Supplementary Table 6.
Hela cells (ATCC, Cat# CCL-2, RRID:CVCL_0030) were cultured in DMEM SILAC medium (Thermo Fisher) supplemented with 10% filtered FBS (Sigma-Aldrich) and 1% penicillin-streptomycin (Thermo-Fisher). The SILAC medium contains either light (Arg0, Lys0), medium (Arg6, Lys4) or heavy (Arg10, Lys8) isotopes (Cambridge Isotopes Laboratories). Hela cells were cultivated for 14 days in SILAC medium to assure sufficient isotope incorporation. For transfection, 7 × 10^6 Hela cells were seeded in a 15 cm culture dish in 20 ml of respective SILAC medium and grown for 24 h. The cells were then transfected with 20 µg of plasmids expressing either GFP (Control), GFP-tagged N-ext-WW12 or GFP-tagged-N-ext-WW12-MUT utilizing 64 µl FuGENE (Promega) (ratio 1:3.2), according to manufacturer’s protocol.
24 h post-transfection, cells were washed twice in ice-cold PBS and harvested in 1 ml mRIPA buffer (50 mM Tris, 150 mM NaCl, 1 mM EDTA, 1% NP-40, 0.1% Na-deoxycholate), supplemented with 2 µl Turbo-DNase (Thermo Fisher) and 3 µl protease-inhibitor cocktail cOmplete (Sigma-Aldrich). Cell lysates were cleared by centrifugation at 16,000 × g, 4 °C, 15 min and concentration was measured using Pierce BCA Protein Assay kit (Thermo Scientific). The expressed constructs were pulled down by incubating 2.5 mg of lysate with 20 μl GFP-nanobody agarose beads (ChromoTek, GTA-20) for 1 h at 4 °C under constant agitation. Subsequently, beads were washed three times with mRIPA buffer without supplements, then eluted in 1X NuPAGE LDS sample buffer (Thermo Scientific). To detach the proteins from the beads, the eluate was heated to 70 °C for 10 min To evaluate the success of the immunoprecipitation, input (1%) and IP samples were analyzed on a NuPAGE 4–12% Bis-Tris-Acrylamide gel (Thermo Fisher) using NuPAGE MOPS SDS running buffer (Thermo Fisher). Proteins were stained using Sypro Ruby protein gel stain (Thermo Fisher) according to manufacturer’s protocol.
The eluted proteins of three SILAC states (light, medium, heavy) were combined. The proteins were then reduced in DTT, alkylated in iodoacetamide, and purified using the SP3 paramagnetic bead approach. This was followed by overnight enzymatic digestion using trypsin (1 µg per sample) in 50 mM ammonium bicarbonate at 37 °C. The peptide solution was then purified by solid phase extraction in C18 StageTips[99].
Peptides were separated by online reverse phase liquid chromatography using the EASY-nLC 1000 system (Thermo Scientific) in a 30-cm analytical column (inner diameter: 75 μm; heated at 50 °C) packed in-house with ReproSil-Pur 120 C18-AQ 1.9-μm beads (Dr. Maisch GmbH). The gradient separation was performed through a 105-min non-linear gradient of 1.6–32% acetonitrile with 0.1% formic acid at a nanoflow rate of 225 nl/min. The eluted peptides were sprayed directly by electrospray ionization into a Q Exactive Plus Orbitrap mass spectrometer (Thermo Scientific). […]

[2] = biological target: T1, PRPF40A WW12 (tandem WW domains, residues 141–236) (Homo sapiens, UniProt O75400); assay: ITC of PRPF40A WW12 with GB1-tagged proline-rich peptides and constructs; assay type: binding; conditions: for Kd: ITC
T1 construct: WW12 141–236, WW12long 141–248, and N-ext-WW12 56–236; 6xHis-TEV site (N, cleaved yes); made in house; host or cells: Escherichia coli BL21(DE3)
From the text: PRPF40A isoform 1 sequences (N-ter 1–310, WW12short 141–223, WW12 141–236, WW12long 141–248, and N-ext-WW12 56–236) were amplified from a purchased DNA fragment (IDT) and cloned using NcoI and KpnI restriction sites into a pETM11 vector encoding 6xHis and TEV cleavage site as a N-terminal tag. SF1 (Pro A 410–468, Pro B 468–539, Pro C 539–594, Pro D 594–639, Pro BC 468–594, Pro CD 539–639, Pro BCD 468–639 and Pro ABCD 410–639) and SF3A1 (Middle Pro 364–413 and C-ter Pro 552–683) constructs were prepared in a similar manner using a pET24 vector with a 6xHis, GB1 and TEV cleavage site as N-terminal fusion cassette. 16-mer SF1 constructs (Table 1) and polyproline peptides (P6, P8, P10, P13, P16, P19, P22, P25, and P29) were cloned in the same pET24 vector with GB1 tag by direct ligation of purchased oligonucleotides (Eurofins). All peptide sequences contained N and C-terminal common residues to avoid boundary effects on binding: TEVsite-GAMSGS-peptide-SGSN. Mutants of PRPF40A WW12 and N-ext-WW12 constructs were prepared by site-directed mutagenesis. The truncated version of PRPF40A WW12 (141-217) was a gift from Dr. María Macías (IRB, Spain). All used oligonucleotides were purchased from Eurofins Genomics and are shown in Supplementary Table 6.
Resuspended cell pellets in 20 mM Tris pH 8.0, 500 mM NaCl, 10 mM imidazole, 0.5 mM TCEP, and protease inhibitors mix (SERVA) were lysed by cell disruption in a French press. Clear lysates, after centrifugation (at 18,000 g) and filtering, were loaded into Ni-NTA resin. The resin was then washed with 20 mM imidazole containing buffer, and the desired protein was eluted with 500 mM imidazole. PRPF40A constructs were then subjected to TEV protease treatment (homemade at a final concentration of ≈50 μg/ml), dialyzed overnight at 4 °C against an imidazole-free buffer, and then loaded again to Ni-NTA resin; desired digested proteins were obtained in the flow-through and wash fractions while uncleaved protein, TEV protease, and impurities remained bound to the resin. Cleaved PRPF40A proteins and GB1-tagged SF1, SF3A1, and polyproline constructs were further purified by size-exclusion chromatography on a HiLoad 16/60 Superdex 75 column (GE Healthcare) equilibrated with 20 mM sodium phosphate, pH 6.5, 100 mM NaCl and 1 mM DTT buffer. For the purification of PRPF40A WW12 in complex with SF1 peptide, cell pellets of recombinant expression for both proteins were mixed and processed together following the Ni-NTA—TEV digestion—reverse Ni-NTA—SEC-75 protocol; where the complex remained bound in a 1:1 stoichiometry throughout the whole purification (corroborated by NMR). Molecular weight of each sample was confirmed by mass spectrometry, purity was checked by PAGE-SDS, and protein concentrations were determined from the aromatic contribution to the UV absorbance spectra at 280 nm.
Experiments were conducted on a MicroCAl PEAQ-ITC (Malvern Instruments, UK) at 25 °C in 20 mM sodium phosphate pH 6.5 and 100 mM NaCl. PRPF40A was titrated into N-terminal GB1 tagged SF1 or polyproline constructs and vice versa with similar results. Protein concentrations in the cell were around 20–40 μM, while in the syringe ranged between 200 and 500 μM. Experiments were performed at least in duplicate with injections of 1.5 μL (0.4 μL for first point) separated by 150 s delays to recover thermal power baseline and continuous stirring in the cell (750 rpm) for correct mixing. The reference cell was filled with water in all experiments. Data were processed by removing the blank experiment (using digested GB1 fusion protein) and adjusted to one-site binding model with Malvern PEAQ-ITC Analysis software (Malvern Instruments, UK).

PRPF40A N-ext-WW12 = assay: NMR titration (1H-15N and 1H-13C HSQC) of N-ext-WW12 with SF1 peptides; assay type: binding, human; conditions: NMR titration of N-ext-WW12, ratios 1:1 up to 1:4
Method: NMR samples were prepared at concentrations ranging 100–1000 μM in buffer containing 20 mM sodium phosphate pH 6.5, 100 mM NaCl, 1 mM DTT, and 10% or 100% D2O, and measured at 25 °C (except stated otherwise) in 900-, 800-, 600- and 500-MHz Bruker Avance III NMR spectrometers equipped with cryogenic triple resonance gradient probes. Topspin 4.1.0 (Bruker) software was used for NMR data acquisition. Spectra were processed with NMRpipe 8.9[76] and analyzed using ccpnNMR Analysis 2.5 software.
^15N-labeled PRPF40A proteins (WW1, WW2, WW12, and N-extWW12) at around 100 μM concentration were titrated with increasing concentration ratios of polyproline or SF1 peptides (GB1 tagged) until reaching saturation, when possible; ^1H-^15N HSQC experiments and in some cases ^1H-^13C HSQC experiments (using double-labeled PRPF40A proteins) were acquired at each titration point. The chemical shift perturbation (CSP) was weighted using the Eqs. (1) and (2)[89].1 CSP(HN)=0.5⋅ΔδH2+0.14⋅ΔδN2 2 CSP(HC)=0.5⋅ΔδH2+0.3⋅ΔδC2

T1 sequence (O75400 141-236): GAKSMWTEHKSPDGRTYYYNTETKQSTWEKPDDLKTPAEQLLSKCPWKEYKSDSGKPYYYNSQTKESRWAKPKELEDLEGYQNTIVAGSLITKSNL

Substance	Immunoprecipitation enrichment MUT vs WT, log2 FC [1]	further results
CCNT1;CCNT2	1.3354	
CDK9	1.401	
CDK12	1.215	
EFTUD2	1.181	
INF2	1.013	
MPPPPMGMMPPPPPPP [SF1_470–485]		N (sites) ([2]; ITC as E1, peptide in the cell, WW tandem in the syringe, N >1 = more than one WW tandem per peptide): 0.90 ± 0.16 sites; DH ([2]; ITC binding enthalpy, as E1): -13.6 ± 0.813 kcal/mol; Kd ([2]; 25 °C, 20 mM sodium phosphate pH 6.5, 100 mM NaCl, GB1-tagged polyproline or SF1 16-mer peptide in the cell, WW tandem in the syringe, one-site model, apparent Kd, average of at least duplicates, read-out: Kd): 13.9 ± 2.3 µM; Kd ([2]; SF1 peptides, individual value 1 (replicate 1), read-out: Kd Values with WW12, individual value): 10.9 µM; Kd ([2]; SF1 peptides, individual value 2 (replicate 2), read-out: Kd Values with WW12, individual value): 13.3 µM; Kd ([2]; SF1 peptides, individual value 3 (replicate 3), read-out: Kd Values with WW12, individual value): 14 µM; Kd ([2]; SF1 peptides, individual value 4 (replicate 4), read-out: Kd Values with WW12, individual value): 17.3 µM; displacement of the intramolecular N-terminal motifs (methyl signals Val 80, Val 129) (PRPF40A N-ext-WW12): cannot fully displace the intramolecular motifs
SAE1	1.104	
SNRNP200	1.2097	
WIZ	1.529	
